Data set [1] relates to Escherichia coli. The data set can be described thus: Antibacterial activity against Escherichia coli assessed as inhibition zone at 25 ug/ml by diffusion method. The format is functional. The settings on record: read-out: IZ.
The test system of data set [2] is Escherichia coli. The data set can be described thus: Antibacterial activity against Escherichia coli assessed as inhibition zone at 50 ug/ml by diffusion method. It counts as functional. The settings on record: read-out: IZ.
The test system of data set [3] is Pseudomonas aeruginosa. Briefly: Antibacterial activity against Pseudomonas aeruginosa assessed as inhibition zone at 75 ug/ml by diffusion method. It counts as functional. The settings on record: read-out: IZ.
Data set [4] deals with Pseudomonas aeruginosa. The data set can be described thus: Antibacterial activity against Pseudomonas aeruginosa assessed as inhibition zone at 50 ug/ml by diffusion method. It counts as functional. The note with it: read-out: IZ.
Data set [5] deals with Staphylococcus aureus. Briefly: Antibacterial activity against Staphylococcus aureus assessed as inhibition zone at 50 ug/ml by diffusion method. It counts as functional. The note with it: read-out: IZ.
Data set [6] deals with Staphylococcus aureus. Briefly: Antibacterial activity against Staphylococcus aureus assessed as inhibition zone at 75 ug/ml by diffusion method. The format is functional. The settings on record: read-out: IZ.
The subject of data set [7] is Mycobacterium tuberculosis. Briefly: Antimycobacterial activity against Mycobacterium tuberculosis H37Rv assessed as bacterial growth inhibition by microplate Alamar blue assay. The format is functional.
The subject of data set [8] is Escherichia coli. The data set can be described thus: Antibacterial activity against Escherichia coli assessed as inhibition zone at 75 ug/ml by diffusion method. The format is functional. The note with it: read-out: IZ.
Data set [9] relates to Pseudomonas aeruginosa. Briefly: Antibacterial activity against Pseudomonas aeruginosa assessed as inhibition zone at 25 ug/ml by diffusion method. The format is functional. The settings on record: read-out: IZ.
A short description of data set [10]: Selectivity index, ratio of CC50 for African green monkey Vero cells to MIC for Mycobacterium tuberculosis H37Rv. The format is toxicity. The note with it: read-out: Selectivity Index.
Data set [11] is described as follows: Cytotoxicity against African green monkey Vero cells measured after 72 hrs by MTT assay. The settings on record: chlorocebus sabaeus. It counts as toxicity, cell-based.
Data set [12] in a line: Cytotoxicity against African green monkey Vero cells assessed as inhibition of cell growth at 6.25 ug/ml measured after 72 hrs by MTT assay relative to control. The format is toxicity, cell-based. The settings on record: chlorocebus sabaeus, at 6.25 µg/mL.
Data set [13] has as its system Staphylococcus aureus. The data set can be described thus: Antibacterial activity against Staphylococcus aureus assessed as inhibition zone at 25 ug/ml by diffusion method. It counts as functional. The settings on record: read-out: IZ.

Data on eleven compounds can be found in ChEMBL document CHEMBL5523679, “Discovery of 1,2,3-triazole incorporated indole-piperazines as potent antitubercular agents: Design, synthesis, in vitro biological evaluation, molecular docking and ADME studies” (Bioorg Med Chem, 2024).

Values after ≈ are worked out from the molar mass of the structure shown.

In the case of `O=C(CCc1cn(Cc2cn(Cc3ccc(F)cc3)nn2)c2ccccc12)N1CCN(C(=O)c2ccccc2C(F)(F)F)CC1`, the zone of inhibition at 25 µg/mL in [1] is 15 mm; in [9] it was 10 mm. Besides, the zone of inhibition at 50 µg/mL turned out to be 23 mm in data set [2], 15 mm in data set [4] and 13 mm in data set [5]. Further, the zone of inhibition at 75 µg/mL in [3] was found to be 18 mm; in data set [6], 20 mm; in data set [8], 25 mm. Further, the MIC in data set [7] was found to be 5 µM. For the same compound, in data set [10], the selectivity ratio was found to be 268. The CC50 at 72 h in [11] was 837 µg/mL (≈ 1350 µM). The inhibition at 72 h, 6.25 ug/ml in [12] is 5.4%.

Regarding `O=C(CCc1cn(Cc2cn(Cc3ccc(F)cc3)nn2)c2ccccc12)N1CCN(S(=O)(=O)c2ccc(F)cc2)CC1`, the zone of inhibition at 25 µg/mL in [13] and in [1] was 13 mm each time. The zone of inhibition at 50 µg/mL in data set [2] worked out at 20 mm; in data set [4], 10 mm; in data set [5] it was 18 mm. The results for the zone of inhibition at 75 µg/mL in [3], in data set [6] and in data set [8] were 15 mm, 20 mm and 25 mm, respectively. The MIC in data set [7] came to 2.6 µM. Further, the selectivity ratio in [10] came out at 1060. The CC50 at 72 h in data set [11] was determined as 1700 µg/mL (≈ 2810 µM). The inhibition at 72 h, 6.25 ug/ml in [12] was determined as 11.9%.

As to `O=C(CCc1cn(Cc2cn(Cc3ccc(F)cc3)nn2)c2ccccc12)N1CCN(C(=O)c2ccnc(Cl)c2)CC1`, the zone of inhibition at 25 µg/mL is 13 mm in [13] and 10 mm in [9]. The figures for the zone of inhibition at 50 µg/mL in data set [2], in data set [4] and in [5] were 18 mm, 13 mm and 13 mm, respectively. For the same compound, the zone of inhibition at 75 µg/mL was 15 mm in data set [3], 18 mm in data set [6] and 20 mm in [8]. Besides, in data set [7], the MIC turned out to be 2.7 µM. For the same compound, the selectivity ratio in data set [10] was 673. In data set [11], this compound had a CC50 at 72 h of 1080 µg/mL (≈ 1840 µM). In addition, in data set [12], the inhibition at 72 h, 6.25 ug/ml was 11.8%.

As for `Cc1ccc(C(=O)N2CCN(C(=O)CCc3cn(Cc4cn(Cc5ccc(F)cc5)nn4)c4ccccc34)CC2)cc1`, the zone of inhibition at 25 µg/mL came to 13 mm in data set [13] and 15 mm in data set [1]. Moreover, the zone of inhibition at 50 µg/mL was 20 mm in data set [2], 10 mm in data set [4] and 13 mm in data set [5]. Moreover, the zone of inhibition at 75 µg/mL in data set [3] is 13 mm; in data set [6] it was 20 mm; in data set [8] it was 25 mm. In data set [7], the MIC was determined as 5.5 µM. For the same compound, the selectivity ratio in [10] came to 424. For the same compound, in data set [11], half-maximal cytotoxicity (CC50 at 72 h) was put at 1320 µg/mL (≈ 2340 µM). For the same compound, in [12], the inhibition at 72 h, 6.25 ug/ml was found to be 9.4%.

`O=C(CCc1cn(Cc2cn(Cc3ccc(F)cc3)nn2)c2ccccc12)N1CCN(C(=O)c2ccc(F)cc2)CC1`: the values for the zone of inhibition at 25 µg/mL in [13] and in data set [1] were 13 mm and 15 mm, respectively. Besides, the values for the zone of inhibition at 50 µg/mL in data set [2] and in data set [5] were 20 mm and 15 mm, respectively. Moreover, the zone of inhibition at 75 µg/mL came to 13 mm in [3], 20 mm in data set [6] and 23 mm in [8]. The MIC in data set [7] was determined as 2.8 µM. Further, the selectivity ratio in data set [10] worked out at 750. In addition, the CC50 at 72 h in data set [11] is 1200 µg/mL (≈ 2110 µM). For the same compound, the inhibition at 72 h, 6.25 ug/ml in data set [12] was found to be 11.7%.

In the case of `O=C(CCc1cn(Cc2cn(Cc3ccc(F)cc3)nn2)c2ccccc12)N1CCN(C(=O)c2cccnc2)CC1`, the figures for the zone of inhibition at 25 µg/mL in [13] and in data set [1] were 6 mm and 15 mm, respectively. Also, the results for the zone of inhibition at 50 µg/mL in data set [2] and in [5] were 23 mm and 15 mm, respectively. Besides, the zone of inhibition at 75 µg/mL in [3] is 10 mm; in [6], 18 mm; in data set [8], 25 mm. Moreover, the MIC in data set [7] stood at 2.9 µM. Besides, in data set [10], the selectivity ratio came to 732. Also, the midpoint of cytotoxicity in data set [11], the CC50 at 72 h, lay at 1170 µg/mL (≈ 2120 µM). The inhibition at 72 h, 6.25 ug/ml in data set [12] came to 11.7%.

As to `O=C(CCc1cn(Cc2ccc(F)cc2)c2ccccc12)N1CCN(C(=O)c2ccc(Cl)cc2)CC1`, the zone of inhibition at 25 µg/mL in data set [13] came to 13 mm. Besides, the values for the zone of inhibition at 50 µg/mL in data set [2], in data set [4] and in [5] were 15 mm, 10 mm and 19 mm, respectively. Further, the zone of inhibition at 75 µg/mL in data set [3] came out at 13 mm; in [6], 23 mm; in data set [8] it was 18 mm. The minimum inhibitory concentration (MIC) in data set [7] came out at 12.4 µM. In [10], the selectivity ratio was 61.6. In data set [11], this compound returned a cytotoxic concentration (CC50) at 72 h of 385 µg/mL (≈ 764 µM). In data set [12], the inhibition at 72 h, 6.25 ug/ml came to 36.4%.

With `O=C(CCc1cn(Cc2cn(Cc3ccc(F)cc3)nn2)c2ccccc12)N1CCN(C(=O)c2ccncc2F)CC1`, the zone of inhibition at 25 µg/mL in data set [13] and in data set [9] was 10 mm each time. Further, the zone of inhibition at 50 µg/mL in [2], in data set [4] and in data set [5] was 15 mm in each case. Moreover, the results for the zone of inhibition at 75 µg/mL in data set [3], in [6] and in data set [8] were 18 mm, 18 mm and 20 mm, respectively. The minimal inhibitory concentration (MIC) in data set [7] was 5.5 µM. The selectivity ratio in data set [10] stood at 283. In data set [11], this compound showed a CC50 at 72 h of 882 µg/mL (≈ 1550 µM). Also, the inhibition at 72 h, 6.25 ug/ml in [12] is 8.5%.

With `O=C(CCc1cn(Cc2cn(Cc3ccc(F)cc3)nn2)c2ccccc12)N1CCN(C(=O)c2ccc(Cl)cc2)CC1`, the results for the zone of inhibition at 25 µg/mL in data set [13] and in [1] were 6 mm and 13 mm, respectively. Further, the zone of inhibition at 50 µg/mL in [2] is 20 mm; in data set [4], 12 mm; in data set [5], 15 mm. For the same compound, the zone of inhibition at 75 µg/mL in [3] amounted to 15 mm; in data set [6] it was 18 mm; in data set [8], 23 mm. In addition, in [7], the MIC worked out at 10.7 µM. The selectivity ratio in data set [10] worked out at 158. Besides, the CC50 at 72 h in data set [11] turned out to be 986 µg/mL (≈ 1680 µM). Also, in data set [12], the inhibition at 72 h, 6.25 ug/ml was found to be 7.9%.

In the case of `O=C(Cc1cn(Cc2ccc(F)cc2)c2ccccc12)N1CCN(C(=O)c2ccc(F)cc2)CC1`, the zone of inhibition at 25 µg/mL in data set [13] amounted to 15 mm. Moreover, the zone of inhibition at 50 µg/mL in [2] was found to be 15 mm; in [4] it was 10 mm; in [5], 18 mm. Also, the results for the zone of inhibition at 75 µg/mL in [3], in data set [6] and in data set [8] were 13 mm, 21 mm and 18 mm, respectively. Further, in [7], the MIC was 13.2 µM. The selectivity ratio in [10] was found to be 71.7. In data set [11], this compound registered a CC50 at 72 h of 448 µg/mL (≈ 946 µM). For the same compound, in data set [12], the inhibition at 72 h, 6.25 ug/ml was found to be 33.8%.

For the compound `O=C(CCc1cn(Cc2cn(Cc3ccc(F)cc3)nn2)c2ccccc12)N1CCN(C(=O)c2cccnc2Cl)CC1`, the zone of inhibition at 25 µg/mL in [13] came to 10 mm; in [1], 13 mm. Also, the zone of inhibition at 50 µg/mL was 23 mm in [2], 10 mm in data set [4] and 15 mm in data set [5]. For the same compound, the zone of inhibition at 75 µg/mL in data set [3] came to 13 mm; in data set [6], 18 mm; in data set [8] it was 25 mm. Further, the MIC in [7] is 5.3 µM. In data set [10], the selectivity ratio stood at 303. Also, the CC50 at 72 h in data set [11] is 946 µg/mL (≈ 1610 µM). Also, the inhibition at 72 h, 6.25 ug/ml in [12] came to 10.1%.
